Reference: US20140213583A1, “PI3K Inhibitor for Use in the Treatment of Bone Cancer or for Preventing Metastatic Dissemination Primary Cancer Cells into the Bone” (NOVARTIS AG, priority 2011, published 2014)
“Also recorded” adds a separate entry of the source.

Assays:
[1] = test system: 453-EGFP cells (MDA-MB-453 human breast cancer cells expressing EGFP); assay: Metastasis therapy with Compound A in Rag2-/-;Il2rg-/- mice challenged i.v. with 453-EGFP cells; assay type: in vivo; conditions: 50 mg/kg per os daily
Text: Rag2^−/−;Il2rg^−/− breeders were kindly given by Drs. T. Nomura and M. Ito of the Central Institute for Experimental Animals (Kawasaki, Japan). Mice were then bred in our animal facilities under sterile conditions. Athymic Crl:CD-1-Foxn1^nu/nu mice (referred to as nude mice) were purchased from Charles River Italy and kept under sterile conditions. Experiments were authorized by the institutional review board of the University of Bologna and done according to Italian and European guidelines.
MDA-MB-453 and BT-474 breast cancer cell lines were originally obtained from by Dr. Serenella M. Pupa (Istituto Nazionale dei Tumori, Milan, Italy). Cell lines were authenticated by DNA fingerprinting on the 11 Nov. 2010 (performed by DSMZ, Braunschweig, Germany). Cells were routinely cultured in Roswell Park Memorial Institute (RPMI) medium supplemented with 10% foetal bovine serum and were maintained at 37° C. in a humidified 5% CO2 atmosphere. All medium constituents were purchased from Invitrogen, Milan, Italy. In order to visualize metastatic cells/lesions, breast cancer cell lines were transfected with a plasmid expressing Enhanced Green Fluorescent Protein (pEGFP-N1, Clontech, Mountain View, Calif.) using Lipofectamine 2000 (Invitrogen). Stable transfectants were selected using G418 (Invitrogen). EGFP expression was monitored by fluorescence microscopy and quantified by cytofluorimetric analysis.
Nine-20-week-old female Rag2^−/−;Il2rg^−/− mice were used throughout this work. Local tumors were induced with 10^7 viable human tumour cells injected either subcutaneously in the right hind leg or in the fat pad of the fourth (abdominal) left mammary gland in 0.2 ml of PBS. Tumor diameters were periodically measured with digital calipers and tumor volumes calculated as […], where a=maximal tumor diameter and b=major tumor diameter perpendicular to a. For intravenous (i.v.) administrations, 2×10^6 cells in 0.4 ml PBS were injected in a tail vein. Nude mice (5-6 week-old) were treated i.v. with anti-asialo GM1 antiserum (Wako, Dusseldorf, Germany), 0.4 ml of a 1:30 dilution in PBS, to deplete NK activity, 24 h prior to the injection of human tumour cells. Pilot experiments were performed to assess for each cell line the time at which experimental metastases could be detected.
Tumor-bearing mice were sacrificed at various times (see Results), depending on tumor and metastasis growth, and were subjected to an accurate necropsy. Lungs were stained with black India ink to better outline metastases and fixed in Fekete's solution. Lung and liver metastases were counted using a dissection microscope. When EGFP-expressing cells were injected, whole mice and dissected organs were carefully examined using a Lightools imaging system (Lightools Research, Encinitas, Calif.) to detect fluorescent metastatic deposits. Quantification of metastatic load in brain and bone marrow was performed by immunofluorescence followed by cytofluorimetric analysis and by Real-Time PCR. Brain was minced with scissors and passed through a 70 μm cell strainer (Becton Dickinson, Bedford, Mass., USA) to obtain a homogeneous cell suspension. Bone marrow was flushed from both femurs in PBS and filtered through a 70 μm strainer. A mouse monoclonal antibody against human HER-2 (clone Neu 24.7, Becton Dickinson, San Jose, Calif., USA) labeled with phycoerythrin was used to quantify human cells by cytofluorometric analysis. Real-Time PCR was performed on genomic DNA extracted with 10 mM Tris-HCl buffer pH 8.3 containing 50 mM KCl, 2.5 mM MgCl2, 0.01% gelatin, 0.45% igepal, 0.45% tween 20 and 120 μg/ml proteinase K (all reagents from Sigma, Milan, Italy) by an overnight incubation at 56° C. followed by […] incubation at 95° C. to inactivate the proteinase K. A sequence of the α-satellite region of the human chromosome 17 was amplified. […]

[2] = from reference (8); cited from earlier work

## Nc1cc(C(F)(F)F)c(-c2cc(N3CCOCC3)nc(N3CCOCC3)n2)cn1 [Compound A, 5-(2,6-di-morpholin-4-yl-pyrimidin-4-yl)-4-trifluoromethyl-pyridin-2-ylamine]
[1]; 37 treatments, HER-2-positive cells in dissociated brain (FIG. 2B)
  inhibition in the number of human cells in the brain, HER-2 flow cytometry: > 90%
[1]; 37 treatments, brain metastatic burden by qPCR (FIG. 2A)
  inhibition in the number of human cells in the brain, human-specific qPCR: > 90%
[1]; 37 treatments, visual count of metastatic sites per mouse (FIG. 2C)
  number of bone metastases decreased: 67%
[1]; brain and lungs (FIG. 1B-C)
  growth of 453-EGFP in heavily colonized organs (brain and lungs): strongly inhibited
[1]; brain, bone marrow and liver, p<0.05 at least, Fisher's exact test (FIG. 1A)
  incidence of metastases in different sites: a sizeable proportion of mice were metastasis-free; also recorded: significant inhibition
[1]; different target organs
  reduction of the metastatic burden: highly significant and widespread reduction
[2]
  penetration of the blood-brain barrier: excellent penetration
